Measured values as given in ChEMBL document CHEMBL3352818, “Seizure prevention by the naturally occurring phenols, carvacrol and thymol in a partial seizure-psychomotor model” (Bioorg Med Chem Lett, 2014).
Activity calls are given as the source filed them. The calls are words filed in the database; no cut-off is given here.

Tests used:
Mus musculus [1] = assay: Anticonvulsant activity against ip dosed CF1 albino mouse seizure model after 4 hrs by 6 Hz psychomotor seizure test; assay type: functional
[2] = Protective index, ratio of TD50 for CF1 albino mouse neurotoxicity to ED50 for protection against 6 Hz electroshock-induced seizure in CF1 albino mouse; assay type: toxicity, organism-based; conditions: in vivo, read-out: Ratio TD50/ED50
Mus musculus [3] = assay: Anticonvulsant activity against CF1 albino mouse seizure model assessed as protection at 100 mg/kg, ip after 0.25 hrs by 6 Hz psychomotor seizure test; assay type: functional, organism-based; set-up: dose 100 mg/kg
[4] = Neurotoxicity in ip dosed CF1 albino mouse seizure model after 4 hr by rototod test; assay type: toxicity, organism-based; conditions: in vivo
Mus musculus [5] = assay: Anticonvulsant activity in CF1 albino mouse assessed as protection against maximal electroshock-induced seizures at 100 mg/kg, ip after 1 hrs; assay type: functional, organism-based; set-up: dose 100 mg/kg
Mus musculus [6] = assay: Neurotoxicity in CF1 albino mouse seizure model at 100 mg/kg, ip after 4 hrs by rototod test; assay type: toxicity, organism-based; set-up: dose 100 mg/kg, route intraperitoneal; conditions: in vivo
Mus musculus [7] = assay: Neurotoxicity in CF1 albino mouse seizure model at 100 mg/kg, ip after 0.5 hrs by rototod test; assay type: toxicity, organism-based; set-up: dose 100 mg/kg, route intraperitoneal; conditions: in vivo
Mus musculus [8] = assay: Neurotoxicity in CF1 albino mouse seizure model assessed as time to peak toxic effect at 100 mg/kg, ip after 4 hr by rototod test; assay type: toxicity, organism-based; set-up: dose 100 mg/kg, route intraperitoneal; conditions: in vivo
Mus musculus [9] = assay: Anticonvulsant activity in CF1 albino mouse assessed as protection against Li-pilocarpine-induced seizure at 65 mg/kg, ip; assay type: functional, organism-based; set-up: dose 65 mg/kg
Mus musculus [10] = assay: Anticonvulsant activity against CF1 albino mouse seizure model assessed as time to peak effect at 100 mg/kg, ip by 6 Hz psychomotor seizure test; assay type: functional; conditions: route intraperitoneal
Mus musculus [11] = assay: Anticonvulsant activity against CF1 albino mouse seizure model assessed as protection at 100 mg/kg, ip after 4 hrs by 6 Hz psychomotor seizure test; assay type: functional, organism-based; set-up: dose 100 mg/kg
Mus musculus [12] = assay: Neurotoxicity in CF1 albino mouse seizure model at 100 mg/kg, ip after 2 hrs by rototod test; assay type: toxicity, organism-based; set-up: dose 100 mg/kg, route intraperitoneal; conditions: in vivo
Mus musculus [13] = assay: Neurotoxicity in CF1 albino mouse seizure model at 100 mg/kg, ip after 0.25 hrs by rototod test; assay type: toxicity, organism-based; set-up: dose 100 mg/kg, route intraperitoneal; conditions: in vivo
Mus musculus [14] = assay: Neurotoxicity in CF1 albino mouse seizure model at 100 mg/kg, ip after 1 hrs by rototod test; assay type: toxicity, organism-based; set-up: dose 100 mg/kg, route intraperitoneal; conditions: in vivo
Mus musculus [15] = assay: Reduction Li-pilocarpine-induced weight loss in protected CF1 albino mouse at 65 mg/kg, ip after 0.5 hrs; assay type: functional, organism-based; set-up: dose 65 mg/kg
Mus musculus [16] = assay: Reduction Li-pilocarpine-induced weight loss in non-protected CF1 albino mouse at 65 mg/kg, ip after 0.5 hrs; assay type: functional, organism-based; set-up: dose 65 mg/kg
Mus musculus [17] = assay: Anticonvulsant activity in CF1 albino mouse assessed as protection against pentylenetetrazole-induced seizure at 100 mg/kg, ip after 2 hrs by scMET test; assay type: functional, organism-based; set-up: dose 100 mg/kg
Mus musculus [18] = assay: Anticonvulsant activity in CF1 albino mouse assessed as protection against maximal electroshock-induced seizures at 100 mg/kg, ip after 0.25 hrs; assay type: functional, organism-based; set-up: dose 100 mg/kg
Mus musculus [19] = assay: Anticonvulsant activity in CF1 albino mouse assessed as protection against maximal electroshock-induced seizures at 100 mg/kg, ip after 2 hrs; assay type: functional, organism-based; set-up: dose 100 mg/kg
Mus musculus [20] = assay: Anticonvulsant activity in CF1 albino mouse assessed as protection against pentylenetetrazole-induced seizure at 100 mg/kg, ip after 4 hrs by scMET test; assay type: functional, organism-based; set-up: dose 100 mg/kg
Mus musculus [21] = assay: Anticonvulsant activity in CF1 albino mouse assessed as protection against maximal electroshock-induced seizures at 100 mg/kg, ip after 0.5 hrs; assay type: functional, organism-based; set-up: dose 100 mg/kg
Mus musculus [22] = assay: Anticonvulsant activity in CF1 albino mouse assessed as protection against pentylenetetrazole-induced seizure at 100 mg/kg, ip after 1 hrs by scMET test; assay type: functional, organism-based; set-up: dose 100 mg/kg
Mus musculus [23] = assay: Anticonvulsant activity against CF1 albino mouse seizure model assessed as protection at 100 mg/kg, ip after 0.5 hrs by 6 Hz psychomotor seizure test; assay type: functional, organism-based; set-up: dose 100 mg/kg
Mus musculus [24] = assay: Anticonvulsant activity against CF1 albino mouse seizure model assessed as protection at 100 mg/kg, ip after 1 hrs by 6 Hz psychomotor seizure test; assay type: functional, organism-based; set-up: dose 100 mg/kg
Mus musculus [25] = assay: Anticonvulsant activity in CF1 albino mouse assessed as protection against pentylenetetrazole-induced seizure at 100 mg/kg, ip after 0.25 hrs by scMET test; assay type: functional, organism-based; set-up: dose 100 mg/kg
Mus musculus [26] = assay: Anticonvulsant activity in CF1 albino mouse assessed as protection against pentylenetetrazole-induced seizure at 200 mg/kg, ip after 4 hrs by scMET test; assay type: functional; conditions: route intraperitoneal
Mus musculus [27] = assay: Anticonvulsant activity in CF1 albino mouse assessed as protection against maximal electroshock-induced seizures at 100 mg/kg, ip after 4 hrs; assay type: functional
Mus musculus [28] = assay: Anticonvulsant activity in CF1 albino mouse assessed as protection against pentylenetetrazole-induced seizure at 100 mg/kg, ip after 0.5 hrs by scMET test; assay type: functional, organism-based; set-up: dose 100 mg/kg

Compound	ED50 (Mus musculus [1])	selectivity ratio [2]	TD50 at 4 h [4]	Activity (Mus musculus [5])	Activity (Mus musculus [6])	Activity (Mus musculus [7])	Time (Mus musculus [8])	Time (Mus musculus [10])	Activity (Mus musculus [12])	Activity (Mus musculus [13])	Activity (Mus musculus [14])	Activity (Mus musculus [17])	Activity (Mus musculus [18])	Activity (Mus musculus [21])	also measured
CN1C(=O)OC(C)(C)C1=O [TRIMETHADIONE]	218 mg/kg	3.8	–	–	–	–	–	–	–	–	–	–	–	–	–
NC(=O)N1c2ccccc2C=Cc2ccccc21 [CARBAMAZEPINE]	47.9 mg/kg	–	–	–	–	–	–	–	–	–	–	–	–	–	–
Cc1ccc(C(C)C)c(O)c1 [THYMOL]	35.8 mg/kg	3.4	121 mg/kg	inactive	Non-toxic	Non-toxic	0.25 h	0.25 h	Non-toxic	Non-toxic	Non-toxic	–	–	–	Activity (Mus musculus [3]): Active; Activity (Mus musculus [9]): inactive; Activity (Mus musculus [11]): inactive
CC(C)c1ccccc1O	49.9 mg/kg	2.8	142 mg/kg	inactive	Non-toxic	–	4 h	0.25 h	Non-toxic	–	Non-toxic	inactive	inactive	inactive	inhibition (Mus musculus [15]): inactive; inhibition (Mus musculus [16]): inactive; Activity (Mus musculus [19]): inactive; Activity (Mus musculus [20]): inactive
Cc1ccc(C(C)C)cc1 [P-CYMENE]	51.3 mg/kg	–	–	–	–	–	–	0.25 h	–	–	–	–	–	–	Activity (Mus musculus [8]): ND(toxic)
CC(C)c1cccc(O)c1	53.8 mg/kg	2.4	129 mg/kg	–	Non-toxic	Non-toxic	4 h	0.25 h	–	Non-toxic	–	inactive	inactive	inactive	Activity (Mus musculus [22]): inactive; Activity (Mus musculus [23]): inactive; Activity (Mus musculus [20]): inactive; Activity (Mus musculus [24]): Active; Activity (Mus musculus [25]): inactive
CC(C)c1cccc(C(C)C)c1O [PROPOFOL]	32.8 mg/kg	1.1	–	–	–	–	–	–	–	–	–	–	–	–	–
Cc1ccc(C(C)C)cc1O [CARVACROL]	35.8 mg/kg	5.3	191 mg/kg	inactive	Non-toxic	Non-toxic	6 h	0.25 h	Non-toxic	Non-toxic	Non-toxic	inactive	inactive	inactive	inhibition in vivo at 200 mg/kg (Mus musculus [26]): 40%; Activity (Mus musculus [3]): inactive; Activity (Mus musculus [9]): inactive; Activity (Mus musculus [19]): inactive; Activity (Mus musculus [23]): inactive; Activity (Mus musculus [27]): inactive; inhibition in vivo at 100 mg/kg (Mus musculus [27]; route intraperitoneal): 20%; Activity (Mus musculus [25]): inactive; Activity (Mus musculus [28]): inactive
